What was measured:
[1] = test system: tumeur ascitique d'Ehrlich; test: Development of Ehrlich ascites tumour in mice (survival); type: in vivo, Souris; conditions: for % d'augmentation: increase of survival versus controls; for Durée de survie des souris: souris Swiss, 2 x 10^6 malignant cells i.p., 4 days; for Nombre d'animaux sans tumeur au 28ème jour: day 28, controls 0/12 and 0/5; for Nombre d'animaux sans tumeur au 28ème jour / % d'augmentation de survie (pour les animaux décédés): same regimen; for % d'augmentation de survie (pour les animaux décédés): versus controls
Protocol: Les composés de l'invention ont été soumis à des essais pharmacologiques montrant leur intérêt dans le domaine antitumoral. L'action des composés sur le développement de la tumeur ascitique d'Ehrlich chez la Souris a été observée.
Les essais se font sur des lots de 5 ou 6 souris Swiss de 12 à 15 g. Chaque animal reçoit 2 x 10^6 cellules malignes par voie péritonéale. Le traitement débute 16 h après l'inoculation et consiste en 2 injections par jour de 0,75 ml d'une solution de dinucléotide à 2 mg/ml dans le péritoine c'est-à-dire 3 mg par animal et par jour ou 200 mg/kg. La durée du traitement est de 4 jours.
Les dinucléotides,composés de l'invention, ont été testés de la manière indiquée.

virus Herpès = test: Herpes virus yield in treated cell cultures (TCID50 titre); type: cell-based; conditions: untreated control harvest titre 10^5,625; concentration not given
From the text: L'activité des trois composés de l'invention Ara A-p-Ara A, Ara A-p-Ara C et Ara C-p-Ara A a également été démontrée sur le virus Herpès.
La récolte virale témoin (cellules non traitées) a un titre TCI D50 (tissue culture infecting dosis) de 10^5,625.
Les cultures traitées par les composés de l'invention ont les titres suivants • Ara A-p-Ara A TCID50 = 10^3,16 • ^Ara A^-p-Ara C TCID50 ^< 102 • Ara C-p-Ara A TCID50 ≤ 10^2,5

[2] = Tableau 2, dinucleotide 200 mg/kg per day i.p., controls 14,67 j
[3] = Tableau 1, dinucleotide 200 mg/kg per day i.p. in 2 injections, start 16 h after inoculation, controls 16,54 j (Ara A, Ara C) and 18 j (Ara A-p-Ara C)

Structure (SMILES) | % d'augmentation ([1]; Tableau 2) | Durée de survie des souris [1, 2] | TCID50 (titre of viral harvest of treated cultures) (virus Herpès) | Nombre d'animaux sans tumeur au 28ème jour ([1]; Tableau 1) | Durée de survie des souris [1, 3] | % d'augmentation de survie (pour les animaux décédés) ([1]; Tableau 1)
Nc1ncnc2c1ncn2[C@@H]1O[C@H](COP(=O)(O)O[C@H]2[C@H](O)[C@H](n3cnc4c(N)ncnc43)O[C@@H]2CO)[C@@H](O)[C@@H]1O [Ara A-p-Ara A] | 44,3% | 21,17 j | – | – | – | –
Nc1ccn([C@@H]2O[C@H](COP(=O)(O)O[C@H]3[C@H](O)[C@H](n4cnc5c(N)ncnc54)O[C@@H]3CO)[C@@H](O)[C@@H]2O)c(=O)n1 [Ara A-p-Ara C] | – | – | < 102 | 4/5 | > 36 J | > 100%
Nc1ccn([C@@H]2O[C@H](CO)[C@@H](O)[C@@H]2O)c(=O)n1 [Ara C, 1-β-D-arabinofuranosyl-cytosine] | – | – | – | 0 | 32 J | 94,4%
Nc1ncnc2c1ncn2[C@@H]1O[C@H](CO)[C@@H](O)[C@@H]1O [Ara A, 9-β-D-arabinofuranosyl-adénine] | 39,75% | 20,5 j | – | 0 | 24,5 j | 48,5%
